In patent US20230242871A1, “GENERATION OF PRIMORDIAL GERM CELLS AND METHODS OF USING THE SAME” (The Board of Trustees of the Leland Stanfor Junior …, priority 2020, published 2023):

System: NANOS3-mCherry hESCs
Experiment: PGC differentiation of NANOS3-mCherry hESCs, flow cytometry for NANOS3-mCherry fluorescent reporter expression
Assay type: cell-based, human
Conditions: for efficiency upon SCF/EGF subtraction: SCF/EGF subtraction from D0.5-1.5; for efficiency upon SCF/EGF subtraction / effect of absence of SCF and EGF on PGC differentiation / requirement on the D0.5-D1.5 interval: FIG. 5C; for effect of absence of SCF and EGF on PGC differentiation: absence in the same time window (24 hrs at day 2); for requirement on the D0.5-D1.5 interval: posterior epiblast differentiation into PGCs
Text: In the NANOS3-mCherry hESC line, a 2A-mCherry fluorescent reporter was inserted immediately downstream of the NANOS3 gene without disrupting its coding sequence (Irie et al., 2014). In the SOX17-GFP hESC line, a GFP fluorescent reporter was inserted immediately after the SOX17 start codon, thus functionally invalidating one SOX17 allele (Wang et al., 2011). In the NANOG-2A-YFP hESC line, Cas9 RNP/AAV6-based genome editing (Martin et al., 2019) was used to insert a 2A-iCaspase9-2A-YFP fluorescent reporter immediately downstream of the NANOG gene without disrupting the NANOG coding sequence.
hPSC differentiation into PGCs. Undifferentiated hPSCs were maintained in mTeSR1 + 1% penicillin/streptomycin and enzymatically passaged (Accutase, 1:8-1:12 split) for differentiation. After overnight recovery in mTeSR1 + Thiazovivin (ROCK inhibitor, 5 µM), the following morning, hPSCs were briefly washed (DMEM/F12) and differentiated into posterior epiblast for 12 hours (100 ng/mL Activin + 3 µM CHIR99021 + 10 µM Y-27632) in aRB27 basal media, which comprised Advanced RPMI 1640 medium supplemented with 1% B27 supplement, 0.1 mM non-essential amino acids (NEAA), 100 U/ml Penicillin + 0.1 mg/ml Streptomycin, and 2 mM L-Glutamine (Kobayashi et al., 2017). Subsequently, […], […], […], 100 ng/mL SCF, 50 ng/mL EGF, 1 µM XAV939, and 10 µM Y-27632 for 24 hours (all in aRB27 basal media). For comparison, published PGC differentiation protocols (Sasaki et al., 2015; Kobayashi et al., 2017) were performed as described previously.
Flow cytometry and fluorescence-activated cell sorting (FACS) for cell-surface marker expression. hPSCs or their differentiated derivatives were dissociated using TrypLE Express (Gibco), were washed off the plate with FACS buffer (PBS + 0.1% BSA fraction V [Gibco] + 1 mM EDTA [Gibco] + 1% penicillin/streptomycin [Gibco]) and were pelleted by centrifugation (5 mins, 4° C.). Subsequently, cell pellets were directly resuspended in FACS buffer containing pre-diluted primary antibodies (listed below), thoroughly triturated to ensure a single cell suspension, and primary antibody staining was conducted for 30 mins on ice. Afterwards, cells were washed with an excess of FACS buffer and pelleted again, and this was conducted one more time. Finally, washed cell pellets were resuspended in FACS buffer containing 1.1 µM DAPI (Biolegend), and were strained through a 35 µm filter. Flow cytometry and sorting was conducted on a BD FACSAria II (Stanford Stem Cell Institute FACS Core).

Compound	differentiation of posterior epiblast into PGCs (phase II: 3 days in PGC-specifying media after 12 hours WNT agonist (phase I), FIG. 1F)	efficiency upon SCF/EGF subtraction (readout D3.5)	effect of absence of SCF and EGF on PGC differentiation	requirement on the D0.5-D1.5 interval	requirement of LIF for the second differentiation stage (FIG. 5E)	efficiency upon addition of LIF (LIF added during D0.5-3.5, readout D3.5, FIG. 5E)
O=c1[nH]c(-c2ccc(C(F)(F)F)cc2)nc2c1CSCC2 [XAV939, 3,5,7,8-Tetrahydro-2-[4-(trifluoromethyl)phenyl]-4H-thiopyrano[4,3-d]pyrimidin-4-one, reference compound]	promotes differentiation of posterior epiblast into PGCs	–	–	–	–	–
EGF: epidermal growth factor, UniProt P01133 (NSDSECPLSHDGYCLHDGVCMYIEALDKYACNCVVGYIGERCQYRDLKWWELR; UniProt P01133 971-1023, looked up)	–	enhance efficiency	superfluous	dispensable	–	–
LIF: LIF, commonly used to enhance PGC survival (Peprotech 300-05)	–	–	–	–	dispensable	does not improve efficiency
SCF: stem cell factor, also known as Kit ligand	–	enhance efficiency	superfluous	dispensable	–	–
